Data on 3 compounds can be found in patent publication US20220288051A1, “METHODS FOR TREATING CANCER USING SERIAL ADMINISTRATION OF E3 UBIQUITIN LIGASE DEGRADERS” (Dana-Farber Cancer Institute, Inc., priority 2019, published 2022).

The subject of assay [1] is c-Myc. The assay can be described thus: Immunoblotting of degronimid-treated MM.1S cells: c-Myc. It is filed as cell-based, human. The following applies: 0.01-1 μM, 4 h. On the procedure:
MM.1S cells were seeded in 6-well plates at 3×10^6 cells/well (˜24 h prior to addition of drug). […] Cell pellets were thawed on ice, lysed using RIPA buffer (ThermoFisher) with protease/phosphatase inhibitor cocktail (Cell Signal Technology, Danvers, Mass.) by incubating on ice 30 min. The lysates were clarified by spinning at 10,000 g for 10 min at 4° C. and the concentration of the lysate was determined using BCA protocol (ThermoFisher). Samples were prepared for Western blot using LDS sample buffer (NuPage, Invitrogen, Carlsbad, Calif., USA) with sample reducing agent (NuPage, Invitrogen) and heated to 95° C. for 5 min. Samples were loaded (20 ug/sample) into Tris-acetate or Bis-Tris gels (NuPage, Invitrogen) and run as per kit instructions using appropriate running buffers. Gels were transferred as described (Matthews et al., 2015) onto PVDF membrane using SDS-based transfer buffer (NuPage, Invitrogen). Membranes were blocked (5% skim milk; or 5% bovine serum albumin in TBS-T) for at least 30 min then probed with primary antibodies overnight (4° C.). […] Each protein of interest (BRD2, BRD3, BRD4, c-myc and CDK9) was assessed in a separate gel and corresponding membrane (which was simultaneously incubated with antibodies for both the target protein of interest and GAPDH, to provide a loading control within the same blot). […]
(In general: A western blot detects proteins with antibodies after separation by electrophoresis.)

Assay [2] relates to MM.1S cells. The assay can be described thus: CTG viability of CRISPR-edited MM.1S pools tolerant to bortezomib or JQ1. It is filed as cell-based, human. The note with it: after genome-scale gene editing and treatment with JQ1 (500 nM) or bortezomib (25 nM). On the procedure:
Cell viability and growth of human MM cell lines were assessed using CellTitre-Glo (CTG) assay (Promega, Madison, Wis.) per kit instructions, or CS-BLI as described (Delmore et al., 2011). Briefly, cells were seeded (5×10^3 cells/well) into 96- or 384-well opaque plates, in supplemented media (40 or 50 uL) and incubated for 24 h prior to addition of drug. For co-culture experiments, HS27A cells were pre-seeded (5×10^3 cells/well) into each well in media prior (24 h) to the addition of MM cells. At each time point (24 h, 48 h, and/or 72 h) CTG reagent (10% volume) was added to each well, and plates were read using a microplate reader (BioTek Synergy 2, BioTek, Winooski, Va.).
(§1) iii. […] Following treatments, all cells were serially cultured without drug and allowed to regrow for as long as required to enable reseeding (60×10^6 cells per flask, 100 mL) and retreatment with individual drugs while maintaining ˜1000× coverage throughout. Concomitant with retreatment, remaining cells were frozen (−80° C.; 20% FBS/DMSO) for later analysis or assessed for drug resistance/sensitivity using CTG assays. Between treatments, and in order to maintain the health of cultures, dead cells were periodically removed using Ficoll centrifugation (1,500 rpm for 10-20 min). For all CRISPR drug treatment experiments, aliquots of MM.1S-Cas9+ cells transduced with the GeCKO(Sanjana et al., 2014; Shalem et al., 2014) or Brunello (Doench et al., 2016) sgRNA libraries were frozen immediately prior to experimentation to determine the baseline distribution of sgRNAs in the cell population.

Assay [3] concerns MM. The note with it: cited from earlier work.
Assay [4] has as its system MM.1S-Cas9+ cells. The assay can be described thus: Genome-scale CRISPR/Cas9 gene editing (LOF) resistance screens. In kind it is cell-based, human. The following applies: long-term treatment; NGS of sgRNAs. The procedure:
MM.1S cells transduced with lentiviral construct for SpCas9 were kindly provided from Quinlan Sievers (Ebert Lab, BWH/DFCI). MM.1S cells were also transduced with lentiviral construct for dCas9-VP64 (purchased from Addgene).
ii. Lentiviral transductions with sgRNA libraries: For the screen with the GECKOv2 sgRNA library, tumor cell transductions were performed in batches of 8×10^7 cells per sub-library for each replicate. Cells were incubated for 16 hrs in cell medium containing polybrene (2 μg/mL; Santa Cruz Biotechnology), 10 mM HEPES (pH 7.4) (Sigma-Aldrich) and viral prep (4 mL) diluted to achieve an MOI of 0.4. After the end of the incubation with the viral preps, cells were washed and incubated for an additional day. Transduced cells were cultured at an initial density of 1×10^6 cells/mL and were treated with puromycin (1 μg/mL) for up to 14 days immediately after transduction. After puromycin selection, MM.1S-Cas9^+ cells transduced with each GeCKOv2 sublibrary were plated at 60×10^6 cells per flask (T175, 100 mL) to enable coverage of ˜1000× and were sub-cultured at four to five-day intervals to prevent confluence. At each passage, cells were harvested, washed with PBS (Corning, N.Y.), pelleted (5000 rpm, 5 min, 4° C.) and frozen as cell pellets (−80° C.) for next generation sequencing, and also replated at 60×10^6 cells to maintain 1000× coverage.
For the genome-scale screens with the Brunello sgRNA library, tumor cell transductions were performed in batches of 5×10^7 cells per library for six replicates. Cells were incubated (18 h) in cell medium containing polybrene (5 μg/mL; Santa Cruz Biotechnology), 10 mM HEPES (pH 7.4) (Sigma-Aldrich) and viral prep (30 mL) diluted 1:1. Transduced cells were cultured at an initial density of 1×10^6 cells/mL and were treated with puromycin (1 μg/mL) for up to 5 days additional two days from transduction. After stable transduction, pooled MM.1S cells were plated at 40×10^6 cells per flask (T175, 100 mL) to enable coverage of 500× and were sub-cultured at three- to four day intervals to prevent confluence. At each passage, cells were harvested, washed with PBS (Corning), pelleted (5000 rpm, 5 min, 4° C.) and frozen as cell pellets (−80° C.) for next generation sequencing, and also replated at 40×10^6 cells (˜500× coverage).
as §1
For “long-term” treatment screens with Thal-SNS-032-, ARV-771- and MZ-1-resistant cells, we continuously treated MM.1S-Cas9+ cells (40×10^6, —500× coverage) transduced with the Brunello sgRNA library (4 weeks post-puromycin selection) with either each compound's (IC20) or vehicle control. Cells were serially passaged every 3-4 days to prevent confluence, each time replating at ˜500× coverage (100 mL) at the same time replenishing each compound or vehicle. Drug treatments were paused if cell numbers fell below 10×10^6 per flask, allowing cells to recover and regrow, and treatments were resumed at a lower concentration when cell numbers reached 40×10^6. At each passage, cells were assayed for drug sensitivity/resistance using CTG. […]

Assay [5] deals with MM.1S Cas9+ cells. The assay can be described thus: Dose-response assay of cells with individual sgRNA knock-outs, CTG. In kind it is cell-based, human. The note with it: compared to parental MM.1S cells. The procedure:
Non-targeting control sgRNAs and COPS7B sgRNAs were from GeCKOv2. Four sgRNAs were generated per each gene, except from COPS7B, for which 6 sgRNAs were available (Table S2). All sgRNAs were synthesized by CustomArray Inc (Bothell, Wash.). Cloning was performed according to the protocol published by Zhang et al. (media.addgene.org/cms/filer_public/4f/ab/4fabc269-56e2-4ba5-92bd-09dc89c1e862/zhang_lenticrisprv2_and_lentiguide_oligo_cloning_protocol_1.pdf) using a pHKO9 vector. Briefly, to clone the sgRNA guide sequence, plasmids were digested with BsmBI (New England Biolabs, Ipswich, Mass.) at 55° C. for 1 hour. Oligonucleotides for each sgRNA guide sequence were annealed and phosphorylated using T4 Ligation Buffer and T4 polynucleotide kinase (New England Biolabs) at 37° C. for 30 minutes and then annealed by heating to 95° C. for 5 minutes and cooling to 25° C. at 1.5° C./minute. Using T4 ligation buffer and T4 ligase (New England Biolabs), annealed oligos were ligated into gel purified vectors (Qiagen) at 65° C. for 10 minutes. 2.5 ug of the ligation product were transformed in 30 uL E. coli electrocompetent cells (Lucigen E.cloni 10 G ELITE PLUS, Invitrogen). Subsequently, 500 uL of transformed cells were plated on LB Agar-AmpR (ThermoFisher Scientific) and incubated overnight at 37° C. Three colonies per plate were then picked and inoculated in a mini-prep culture (Qiagen). The product was then digested with BsmBI and XhoI (New England Biolabs) at 37° C. for 1 h and compared to the uncut control on 1% agarose gel. One out of three colonies (10 uL) was then precultured in 3 mL LB Broth-AmpR and shaken at 37° C. for 6 h. Afterwards it was transferred to a 250 mL LB Broth-AmpR flask and incubated overnight at 37° C. Each culture was then inoculated into a maxiprep culture (Qiagen).
Also, CRBN, VHL, TCEBJ, TCEB2, UBE2R2 and FBXW2 sgRNA are selected from Brunello library and cloned using pLVX-hyg-sgRNA1 Vector system (Takara Bio USA, CA) according to the manufacturer's manual. b(takarabio.com/assets/documents/User %20Manual/Lenti-X_CRISPR-Cas9_System_User_Manual_121316.pdf)
ii. Lentiviral transductions with constructs for individual sgRNAs: 500×10^3 to 1×10^6 MM.1S Cas9 cells were plated in 50 uL of complete RPMI1640 medium per well in a 24-well plate, and additional 100 uL of complete RPMI1640 medium were added to cover the well completely. Cells were incubated in cell medium containing polybrene (5 to 8 μg/mL; Santa Cruz Biotechnology), and viral prep. 24 hours after addition of viral preps, media were changed and, after another 48 h, puromycin selection (1 to 2 ug/ml per well) was started. After 7 days of puromycin selection, transduced MM.1S Cas9+ cells were collected and expanded in T75 flasks.
iii. […] In the case of Thal-SNS-032 or ARV771, cells are plated 384-well plate and treated each concentration described at figure and viability assays were performed at 72 hrs.

Assay [6] concerns pools of MM cells. As to the kind of experiment: Sequential exposure to CRBN- and VHL-based degraders, CTG. In kind it is cell-based, human. The note with it: compared to treatment-naïve cells. The source says:
We addressed this question using pools of MM cells derived from several of our genome-scale CRISPR-based screens.

On to `Cc1sc2c(c1C)C(c1ccc(Cl)cc1)=N[C@@H](CC(=O)OC(C)(C)C)c1nnc(C)n1-2` [JQ1], for which, in assay [1], the c-Myc protein levels entry was “less pronounced depletion of c-Myc”. Moreover, the “responsiveness of drug-exposed pools to the same agent” value in assay [2] is “decreased responsiveness”. Besides, the induction of apoptosis entry in assay [3] (most cell types tested) is “does not induce apoptosis in most cell types tested”. Also, in assay [3] (preclinical in vitro and in vivo models of MM), the anti-tumor activity entry is given as “has anti-tumor activity”.
On to `Cc1ncsc1-c1ccc(CNC(=O)[C@@H]2C[C@@H](O)CN2C(=O)[C@@H](NC(=O)COCCOCCOCCNC(=O)C[C@@H]2N=C(c3ccc(Cl)cc3)c3c(sc(C)c3C)-n3c(C)nnc32)C(C)(C)C)cc1` [MZ-1], for which the “sgRNA enrichment in resistant cells, long-term screen” value in assay [4] was “enrichment of sgRNAs for CUL2, VHL itself”. Moreover, the “response of cells with sgRNAs against COPS7B or COPS8” value in assay [5] is given as “decreased response”. Moreover, in assay [6], the “shift of dose response curve in pools previously exposed to CRBN-based degraders” value was “limited, if any, shift”.
In the case of `CC(C)C[C@H](NC(=O)[C@H](Cc1ccccc1)NC(=O)c1cnccn1)B(O)O` [bortezomib], in assay [2], the “responsiveness of drug-exposed pools to the same agent” value is reported as “decreased responsiveness”.
